{
  "source": "patent US20260297136A1",
  "about": "“PEPTIDES WITH LIPOLYTIC, ANTI-LIPOGENIC, ANTIFIBROTIC AND ANTI-INFLAMMATORY ACTIVITY” (FUNDACIÓ HOSPITAL UNIVERSITARI VALL D'HEBRON - INSTITUT DE …, priority 2023, published 2026)",
  "key": {"[1]": {"tested_on": "obesity and fatty liver disease mouse model", "assay": "Preventive effects in an obesity and fatty liver disease mouse model, Example 4", "assay_type": "in vivo, C57BL6/J male mice", "settings": "20 mg/kg/day sc, 8 weeks", "experimental": "C57BL6/J male mice were purchased and kept for quarantine and acclimatization for a period of about 7 days before initiation of every experiment. Mice were housed in clean and sterilized mice cages and maintained in a controlled environment with 22+3° C. temperature, 50+20% humidity, a light/dark cycle of 12 hours each and 15-20 fresh air changes per hour.\nFor Obesity and NAFLD induction, the animals were fed ad libitum, either with chow diet (150SP-10, Safe Diets) or 45% high-fat diet (TD.190179, Envigo) plus 30% fructose (F0127, Sigma Aldrich) in drinking water for 8 weeks in the daily presence of vehicle or a subcutaneous injection of GP6 (20 mg/kg/day). A group of mice (n=18) was randomly divided in two groups of 9 mice each. Both groups were fed with high fat diet and 30% fructose in the drinking water for 8 weeks to develop obesity and fatty liver disease. One group was treated with daily subcutaneous injections of vehicle (water) and the other with daily subcutaneous injection of GP6 (20 mg/kg/day) during the 8 weeks that last the experiment.\nAt the end of the experiment mice were sacrificed, serum samples were extracted, tissues were weighted and part was fixed in paraformaldehyde for histology studies and part immediately frozen at −80 C for mRNA and protein expression studies as well as assessment of triglycerides.\nFor histological studies, livers and adipose tissue were fixed in 4% paraformaldehyde for 24 hours and embedded in paraffin. Serial […] sections were used for histological examination and stained with hematoxylin eosin (H&E) and Picrosirius red for histological examination following standard procedures. Briefly, sections were alcohol-xylol hydrated at room temperature, and subsequently, they were stained at room temperature in a solution of 0.1% Direct Red 80 (Sigma-Aldrich) in a saturated aqueous solution of [COMPOUND LEFT OUT] (Sigma-Aldrich) for 1 h. Following that, sections were rinsed twice in 0.5% acetic acid or 5 min, alcohol-xylol dehydrated and covered with Eukitt mounting medium (Sigma-Aldrich). These sections were examined with an Olympus BX61 microscope. Six random fields at 4× magnification from each slice were quantified using ImageJ software to determine the liver collagen deposition as the red stained area in the image. The stage of liver steatosis and/or fibrosis was assessed blinded by an experienced pathologist according to the NASH-clinical research network scoring system (Design and validation of a histological scoring system for nonalcoholic fatty liver disease. Kleiner D E, Brunt E M, Van Natta M, Behling C, Contos MJ, Cummings O W, Ferrell L D, Liu Y C, Torbenson M S, Unalp-Arida A, Yeh M, McCullough A J, Sanyal AJ; Nonalcoholic Steatohepatitis Clinical Research Network. Hepatology. 2005 June; 41(6):1313-21. doi: 10.1002/hep.20701; Transforming growth factor-beta 1: A new factor reducing hepatic SHBG production in liver fibrosis. Briansó-Llort L, Fuertes-Rioja L, Ramos-Perez L, Salcedo-Allende M T, Hernandez C, Simo R, Selva D M. J Cell Physiol. 2022 September; 237(9):3598-3613. doi: 10.1002/jcp.30818). […]\nHepatic TG content was measured from liver extracts using a Triglyceride Assay Kit (ab65336) following the manufacture's instructions.\nTotal RNA was extracted from mouse tissues using TRIzol reagent (Invitrogen SA). Reverse transcription was performed at 42° C. for 50 minutes using […] of total RNA, 200 U of Superscript II, and an oligo-dT primer and reagents provided by Invitrogen. An aliquot of the reverse transcription product was amplified in a […] reaction using SYBRGreen (Invitrogen SA) with appropriate oligonucleotide primer pairs corresponding mouse ACC, FAS, ACLY, PPARG, Col1A1, F4/80, TNFα, IL1β, IL6, TGFβ1, Leptin, Adiponectin and 18S (shown in table 7). […]"}, "HepG2 cells": {"tested_on": "HepG2 cells", "assay": "Hepatic lipogenesis gene expression in HepG2 cells (24 h), Example 7", "assay_type": "cell-based, human", "settings": "40 μg/ml, vs vehicle", "description": "FIG. 32. Effect of GP6 and modified peptides on hepatic lipogenesis in HepG2 cells. Each bar within each group represents mRNA levels of a key hepatic lipogenic enzyme, from left to right: Acetyl-CoA Carboxylase (ACC), ATP Citrate Lyase (ACLY) and Fatty Acid Synthase (FAS), and a key transcription factor regulating several lipogenic enzymes such as PPARγ (PPARγ).\nCell culture reagents were from Life Technologies Inc (Invitrogen SA, Barcelona, Spain). HepG2 hepatoblastoma cells (cat. no. HB-8065; ATCC, LGC Standards SLU, Barcelona, Spain) were maintained in Dulbecco's modified Eagle medium (DMEM) supplemented with 10% fetal bovine serum and antibiotics.\n• HepG2 cells were cultured for 5 day in the absence or presence of 30 mM fructose. Cells cultured in 30 mM fructose were daily treated with vehicle, Telmisartan, Semaglutide or EDL6D. • HepG2 cells were cultured for 24 h in the absence or presence of GP6 (40 μg/ml), GP10 (40 μg/ml), GP11 (40 μg/ml), GP12 (40 μg/ml), GP13 (40 μg/ml) or SHBG (20 nM). • HepG2 cells were cultured in the absence or presence of 30 mM fructose and treated for 2 h with vehicle or GP4 (40 μg/ml), GP6 (40 μg/ml), GP7 (40 μg/ml), GP8 (40 μg/ml), GP9 (40 μg/ml), GP10 (40 μg/ml), GP11 (40 μg/ml), GP12 (40 μg/ml), GP13 (40 μg/ml) or SHBG (20 nM).\nTotal RNA was extracted from HepG2 and LX-2 cells using TRIzol reagent (Invitrogen SA). Reverse transcription was performed at 42° C. for 50 minutes using […] of total RNA, 200 U of Superscript II, and an oligo-dT primer and reagents provided by Invitrogen. An aliquot of the reverse transcription product was amplified in a […] reaction using SYBRGreen (Invitrogen SA) with appropriate oligonucleotide primer pairs corresponding to human SHBG, ACC, FAS, ACLY, PPARG, and 18S and mouse ACC, FAS, ACLY, PPARG, Col1A1 and 18S. Results were analyzed using the 7000 Sequence Detection System program (Applied Biosystems, Thermo Fisher Scientific, Barcelona, Spain) (Shez-Lopez et al Endocrinology 2017)."}, "[2]": {"settings": "blind pathologist, histology reduction confirmed"}},
  "data": [
    {"smiles": "CC[C@@H](C)[C@@H](NC(=O)[C@H](NC(=O)CNC(=O)[C@@H](CCC(=O)O)NC(=O)[C@H]1CCCN1C(=O)[C@@H](CC(=O)O)NC(=O)[C@@H](Cc1c[nH]c2ccccc12)NC(=O)[C@H](NC(=O)[C@@H](CCCNC(=N)N)NC(=O)[C@H](NC(=O)[C@@H](CCC(=O)O)NC(=O)[C@@H](Cc1ccccc1)NC(=O)[C@@H](CO)NC(=O)[C@@H](CO)NC(=O)[C@@H](CO)NC(=O)[C@H](NC(=O)[C@@H](CCCCN)NC(=O)[C@H](N)[C@H](C)O)[C@H](C)O)C(C)C)[C@H](C)O)C(C)C)C(=O)N[C@H](Cc1ccccc1)C(=O)N[C@H](Cc1ccc(O)cc1)C(=O)O", "note": "[GP6]", "values": [
      {"measurement": "ACC mRNA levels in liver", "setting": "[1]; vs vehicle", "value": "reduced the mRNA levels"},
      {"measurement": "F480 mRNA levels in adipose tissue", "setting": "[1]; vs vehicle", "value": "reduced expression"},
      {"measurement": "F480 mRNA levels in hepatic tissue", "setting": "[1]; vs vehicle", "value": "reduced expression"},
      {"measurement": "FAS mRNA levels in liver", "setting": "[1]; vs vehicle", "value": "reduced the mRNA levels"},
      {"measurement": "PPARγ mRNA levels in liver", "setting": "[1]; vs vehicle", "value": "reduced the mRNA levels"},
      {"measurement": "Total body weight", "setting": "[1]; vs vehicle", "value": "significantly reduced"},
      {"measurement": "adipose tissue fibrosis (Col1A1 mRNA expression in adipose tissue)", "setting": "[1]; vs vehicle", "value": "reduced adipose tissue fibrosis"},
      {"measurement": "hepatic expression of IL1β", "setting": "[1]; vs vehicle", "value": "reduced the hepatic expression"},
      {"measurement": "hepatic expression of IL6", "setting": "[1]; vs vehicle", "value": "reduced the hepatic expression"},
      {"measurement": "hepatic expression of TNFα", "setting": "[1]; vs vehicle", "value": "reduced the hepatic expression"},
      {"measurement": "total liver weight", "setting": "[1]; vs vehicle", "value": "significantly reduced"},
      {"measurement": "weight increment (weight at week 8-weight at week 0)", "setting": "[1]; vs vehicle", "value": "significantly reduced"},
      {"measurement": "weight of brown adipose tissue", "setting": "[1]; vs vehicle", "value": "significantly reduced"},
      {"measurement": "weight of subcutaneous adipose tissue", "setting": "[1]; vs vehicle", "value": "significantly reduced"},
      {"measurement": "weight of visceral adipose tissue", "setting": "[1]; vs vehicle", "value": "significantly reduced"},
      {"measurement": "hepatic lipid accumulation (histology)", "setting": "[1]; vs vehicle, H&E", "value": "reduced significantly"},
      {"measurement": "Brunt score", "setting": "[1]; [2]", "value": "confirmed"},
      {"measurement": "Steatosis score", "setting": "[1]; [2]", "value": "confirmed"},
      {"measurement": "percentage of steatosis", "setting": "[1]; [2]", "value": "confirmed"},
      {"measurement": "hepatic triglyceride content (Liver TAG)", "setting": "[1]; histology reduction confirmed", "value": "confirmed"},
      {"measurement": "ACC mRNA levels", "setting": "HepG2 cells", "value": "reduced the mRNA levels"},
      {"measurement": "ACLY mRNA levels", "setting": "HepG2 cells", "value": "reduced the mRNA levels"},
      {"measurement": "FAS mRNA levels", "setting": "HepG2 cells", "value": "reduced the mRNA levels"},
      {"measurement": "PPARγ mRNA levels", "setting": "HepG2 cells", "value": "reduced the mRNA levels"}
    ]}
  ]
}
